According to patent US20050124794A1, “Cell surface tropomyosin as a target of angiogenesis inhibition” (priority 2002, published 2005):
Blank lines part the entries; values can stand above or below the molecule they belong to. Numbered stars: 1 amine (or outer) side, 2 acyl side, 3 side chain; on linkers, the order of the positions; unused ones are H or OH. Square brackets hold non-standard residues; d marks the D form. Ends that are not written are not given here. Peptide text beside a SMILES is read from it. * marks the point of attachment. X3 = O=C([C@H](Cc1c[nH]cn1)N(Cc1ccc(Cl)cc1)[*:1])[*:2]; Fmoc = O=C(OCC1c2ccccc2-c2ccccc21)*

Columns and labels:
[1] = target: T1, chicken gizzard Tpm (Gallus gallus, UniProt P19352); assay: Binding to immobilized Tpm in a 96 well plate (biotin-HKa competition or direct binding); settings: 10 μM ZnCl2; for IC50: displacement of 10 nM biotinylated-HKa; for binding to immobilized Tpm / displacement of biotin-HKa (in words): 10 nM biotin-HKa, 200 ng chicken gizzard Tpm
T1 construct: purchased Sigma; host or cells: chicken gizzard (tissue-derived, as the name says)
T1 sequence (P19352 1-284 isoform P19352-2): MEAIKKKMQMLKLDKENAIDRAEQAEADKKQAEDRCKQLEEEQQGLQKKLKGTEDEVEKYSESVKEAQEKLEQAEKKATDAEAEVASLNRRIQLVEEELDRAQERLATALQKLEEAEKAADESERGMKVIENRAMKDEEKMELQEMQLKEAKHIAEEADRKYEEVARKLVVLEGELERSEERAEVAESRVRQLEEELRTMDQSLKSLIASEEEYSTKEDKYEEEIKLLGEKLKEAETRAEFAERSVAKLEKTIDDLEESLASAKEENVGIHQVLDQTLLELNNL
T1 sequence (P04268 1-284 isoform P04268-2 F73S/I172L/T199L/N203E/L204A partner): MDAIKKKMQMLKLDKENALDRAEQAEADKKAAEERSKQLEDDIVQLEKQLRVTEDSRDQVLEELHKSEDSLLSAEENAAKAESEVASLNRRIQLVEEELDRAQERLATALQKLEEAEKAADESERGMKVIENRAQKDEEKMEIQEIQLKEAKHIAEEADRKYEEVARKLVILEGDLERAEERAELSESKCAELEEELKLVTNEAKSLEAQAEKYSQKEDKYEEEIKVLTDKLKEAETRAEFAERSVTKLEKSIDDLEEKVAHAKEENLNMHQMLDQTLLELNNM
Procedure: Plates are coated at room temperature with chicken gizzard Tpm (Sigma) in Tris buffer-saline (TBS) (200 ng/well). After incubation for 2 hours, wells are washed with TBS, then 1% BSA/TBS/Tween-20 is added to each well and incubate at 37° C. for two hours. HKa (Enzyme Laboratories) that had been previously biotinylated with EZ-Link (Pierce) according to the manufacturers instructions, is added to the plate at a concentration of 10 nM together with ZnCl2 (10 μM) and the appropriate concentration of the protein, domain or peptide competitor. The plates are incubated at room temperature and then washed with TBS/Tween-20. Avidin-HRP is added, incubated for 20 minutes at room temperature, washed with TBS/Tween-20 and the chromogenic substrate is added. The reaction is stopped with sulfuric acid and the plate read at 490 nm.
(§1) The IC50 for the displacement of biotinylated-HKa for the peptides shown in Table 5 was determined as follows: 10 nM biotin-HKa is added to a 96 well plate previously coated with 200 ng of chicken gizzard Tpm in the presence of 10 μM ZnCl2. Increasing amounts of the peptides are added to the wells. The remaining biotin-HKa bound to Tpm was detected using avidin-HRP and a chromogenic substrate. A Kd was determined by non-linear regression analysis of the empirical data. The effect on the Matrigel Plug assay was determined as follows: Matrigel (0.5 mL) containing 400 ng/ml of bFGF, 50 μg/ml heparin with or without the peptide (300 μM) or saline buffer are injected in the flanks of a mouse. After five days, the plugs are removed and the plugs scanned.
The N-terminus of the pentapeptide HHPHG has been derivatized (capped) in an attempt to increase the pentapeptides' affinity to Tpm by increasing productive molecular contacts (or interactions). […] The IC50 for the displacement of biotinylated-HKa for the capped peptides shown in the table was determined as follows: 10 nM biotin-HKa was added to a 96 well plate previously coated with 200 ng of chicken gizzard Tpm in the presence of 10 μM ZnCl2. Increasing amounts of the peptides were added to the wells. The remaining biotin-HKa bound to Tpm was detected using avidin-HRP and a chromogenic substrate. A Kd was determined by non-linear regression analysis of the empirical data

[2] = system: bFGF-induced angiogenesis; assay: Matrigel plug assay (bFGF-induced angiogenesis); type: in vivo, mouse; settings: 400 ng/ml bFGF, five days, plugs scanned; for Inhibits Angiogenesis (Matrigel ® assay): peptide 300 μM, 50 μg/ml heparin
Procedure: This assay is performed essentially as described by Passaniti et al. (Lab Invest. 67:519-528 (1992). Ice-cold Matrigel® (e.g., 500 μL) (Collaborative Biomedical Products, Inc., Bedford, Mass.) is mixed with heparin (e.g., 50 μg/ml), FGF-2 (e.g., 400 ng/ml) and the compound to be tested. In some assays, bFGF may be substituted with tumor cells as the angiogenic stimulus. The Matrigel® mixture is injected subcutaneously into 4-8 week-old athymic nude mice at sites near the abdominal midline, preferably 3 injections per mouse. The injected Matrigel® forms a palpable solid gel. Injection sites are chosen such that each animal receives a positive control plug (such as FGF-2+heparin), a negative control plug (e.g., buffer+heparin) and a plug that includes the compound being tested for its effect on angiogenesis, e.g., (FGF-2+heparin+compound). All treatments are preferably run in triplicate. Animals are sacrificed by cervical dislocation at about 7 days post injection or another time that may be optimal for observing angiogenesis. The mouse skin is detached along the abdominal midline, and the Matrigel® plugs are recovered and scanned immediately at high resolution. Plugs are then dispersed in water and incubated at 37° C. overnight. Hemoglobin (Hb) levels are determined using Drabkin's solution (e.g., obtained from Sigma) according to the manufacturers' instructions. The amount of Hb in the plug is an indirect measure of angiogenesis as it reflects the amount of blood in the sample. In addition, or alternatively, animals may be injected prior to sacrifice with a 0.1 ml buffer (preferably PBS) containing a high molecular weight dextran to which is conjugated a fluorophore. The amount of fluorescence in the dispersed plug, determined fluorimetrically, also serves as a measure of angiogenesis in the plug. Staining with mAb anti-CD31 (CD31 is “platelet-EC adhesion molecule or PECAM”) may also be used to confirm neovessel formation and microvessel density in the plugs.
as §1
These cyclic peptides were also tested for their ability to inhibit bFGF-induced angiogenesis in vivo in a Matrigel plug assay. Matrigel (0.5 mL) containing 400 ng/ml of bFGF, 50 μg/ml heparin with or without 10 μM peptide (ATN-310, ATN-311 or ATN-312 or saline buffer for the controls, was injected subcutaneously in the hind flanks of a mouse as described above. All the treatments were done in triplicate. After five days, the vascularization of the Matrigel plug was determined fluorometrically after i.v. injection of 100 μl of dextran conjugated with fluorescein isothiocyanate (FITC-dextran; MW 250,000, Sigma). Five days after injection, the plugs were removed and subjected to mincing of tissue which releases vascular FITC-dextran into the supernatant. Samples of supernatant were subjected to fluorimetry as a measure of vascularity of the plug. The amount of vasculature (neovessels) is directly proportional to the fluorescent signal which reflects the total vascular blood volume of the plug. The results are shown in Table 7, below and expressed as arbitrary fluorescence units or as % inhibition relative to the negative control.

[3] = system: MatLyLu cells; assay: Matrigel/MatLyLu model (Matrigel plug with tumor cells); type: in vivo; settings: 700 μM ATN230 or 900 μM ATN294, 2×10^6 MatLyLu cells in mouse flank, seven days
Text: In this assay, tumor cells, for example 1-5×10^6 cells of the 3LL Lewis lung carcinoma or the rat prostate cell line MatLyLu, are mixed with Matrigel® and then injected into the flank of a mouse following the protocol described in Sec. B., above. A mass of tumor cells and a powerful angiogenic response can be observed in the plugs after about 5 to 7 days. The anti-tumor and anti-angiogenic action of a compound in an actual tumor environment can be evaluated by including it in the plug. Measurement is then made of tumor weight, Hb levels or fluorescence levels (of a dextran-fluorophore conjugate injected prior to sacrifice). To measure Hb or fluorescence, the plugs are first homogenize with a tissue homogenizer.

[4] = target: T2, D5 domain of human kininogen, HKa (Homo sapiens, UniProt P01042); assay: Binding to HKa D5 (affinity column)
T2 construct: made in house
T2 sequence (P01042 402-526): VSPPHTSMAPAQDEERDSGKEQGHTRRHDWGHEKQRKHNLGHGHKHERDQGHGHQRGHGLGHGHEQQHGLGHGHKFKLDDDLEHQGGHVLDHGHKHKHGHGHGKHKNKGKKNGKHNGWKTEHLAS
Procedure: Chicken gizzard Tpm was partially digested with Chymotrypsin as described for FIG. 19 for 100 minutes so that a 20 kDa fragment was enriched. HK-D5 had previously immobilized in an activated Sepharose (CNBr-activated Sepharose 4 B, Amersham Biosciences). The chymotryptic fragments were incubated with the HK-D5-Sepharose resin in TBS containing 10 μM ZnCl2, washed extensively in the same buffer and eluted in 2 M NaCl. The samples were run in a 10% NuPage gel (Invitrogen).
The present inventors discovered the AALBP by passing a chymotryptic digest of cTPM1 over an affinity column comprising an antiangiogenic polypeptide, specifically, the D5 domain of human kininogen, HKa. Material that bound to the column was subjected to N-terminal sequencing. The sequence was determined to be SESVKEAQE, corresponding to residues 61-69 of cTPM1 (SEQ ID NO: 1) and residues 1-9 of SEQ ID NO:2.
The fragment was partially purified by passing the chymotryptic digest through an affinity column of Sepharose-HKa-D5. The column was extensively washed and eluted with high salt buffer. The resulting material was run on an SDS gel which appears in (FIG. 20). […]

[5] = Table 6, N-capped HHPHG peptides

IC50 ([1]; Table 5): > 10000 µM
Molecule: APPHG [ATN246, APPHG]

binding to HKa D5 (in words) [4]: binds
Molecule: SEQ ID NO:2: chymotryptic fragment, residues 61-214 of chicken gizzard cTPM1, about 17 kDa

IC50 [1, 5]: 23 µM
Molecule: O=C(O)CNC(=O)[C@H](Cc1c[nH]cn1)NC(=O)[C@@H]1CCCN1C(=O)[C@H](Cc1c[nH]cn1)NC(=O)[C@H](Cc1c[nH]cn1)NCc1ccc(Cl)cc1 [ATN-276.000.01, 4-Chlorobenzyl] (H-[X3]HPHG-OH)

IC50 ([1]; Table 5): > 10000 µM
Molecule: Ac-HHPHG [ATN269, c-HHPHG]

IC50 ([1]; Table 5): > 10000 µM
Molecule: Ac-HHPHG-NH2 [ATN239, c-HHPHG-c]

binding to immobilized Tpm / displacement of biotin-HKa (in words) [1]: abolished
Molecule: AHPHG [ATN294]
inhibition of MatLyLu growth, plug weight (in words) [3]: not
inhibition of MatLyLu growth, plug weight (in words) ([3]; listed as AHPHG): significantly less anti-tumor activity

IC50 [1, 5]: 55 µM
Molecule: O=C(O)CNC(=O)[C@H](Cc1c[nH]cn1)NC(=O)[C@@H]1CCCN1C(=O)[C@H](Cc1c[nH]cn1)NC(=O)[C@H](Cc1c[nH]cn1)NC(=O)OCC1c2ccccc2-c2ccccc21 [ATN-278.000.01, Fmoc] (Fmoc-HHPHG-OH; C-terminus assumed)

Further lines, the molecule ahead of its results:

Molecule: Ac-PPPHG-NH2 [ATN229, c-PPPHG-c]
IC50 ([1]; Table 5): > 10000 µM

Molecule: HPPHG [ATN228, HPPHG]
binding to immobilized Tpm / displacement of biotin-HKa (in words) [1]: bound
inhibition of angiogenesis in the Matrigel plug model (in words) ([2]; 20 μg peptide): inhibited angiogenesis
Inhibits Angiogenesis (Matrigel ® assay) [2]: Yes

Molecule: HHPHG [ATN230, HHPHG]
Inhibits Angiogenesis (Matrigel ® assay) [2]: Yes
Inhibits Angiogenesis (Matrigel ® assay) ([2]; listed as HHPHG): substantial activity
inhibition of MatLyLu growth, plug weight (in words) [3]: inhibited MatLyLu growth
inhibition of MatLyLu growth, plug weight (in words) ([3]; listed as HHPHG): anti-tumor activity

Molecule: TRRHDWGH [ATN232, TRRHDWGH]
IC50 ([1]; Table 5): 140 µM
Inhibits Angiogenesis (Matrigel ® assay) [2]: Yes

Molecule: Ac-HPPHG-NH2 [ATN231, c-HPPHG-c]
IC50 ([1]; Table 5): > 10000 µM

Molecule: HKNKGKKN [ATN16, HKNKGKKN]
IC50 ([1]; Table 5): 99.5 µM
Inhibits Angiogenesis (Matrigel ® assay) [2]: Yes

Molecule: PPPHG [ATN227, PPPHG]
IC50 ([1]; Table 5): > 10000 µM
